Laboratory results from patent US20260266803A1, “Induced Pluripotent Stem Cell Model of Fibrous Dysplasia/Mccune-Albright Syndrome and Methods of Use” (The Regents of the University of California, priority 2023, published 2026).

Test system: GNAS^R201H iPSCs
Test: cAMP in iPSCs stimulated with the β-adrenergic receptor agonist isoproterenol
Format: cell-based, human
Settings: 10 μM isoproterenol, N=6 in two different iPSC lines
Description: FIGS. 3A-3C. […] Representative of n=3. (FIG. 3B) Representative western blot of pluripotent and differentiated (DDX) iPSCs showing increased pCREB and pATF1, consistent with activation of the cAMP pathway. […] N=6 in two different iPSC lines.
Initial screens with a single dose (50 μM) in our GNAS iPSCs identified several compounds with potential as molecular tools ([…].B). We found candidates that inhibited Gsα^R201H but not WT (#46, 47, 43, 2). […] While not desirable for treating FD/MAS or GNAS hyperactivation, these may be useful for treating diseases of GNAS loss of function (e.g., Albright's hereditary osteodystrophy).

Compound: CC(C)NCC(O)c1ccc(O)c(O)c1 (stereo not shown) [isoproterenol]
- differences in cAMP from baseline: increased differences in cAMP from baseline
